Experimental findings from PubChem BioAssay AID1557 (Sanford-Burnham Center for Chemical Genomics, 2009) are described below.

The data set deals with PAMPA artificial membrane permeability, UV readout, 30 min. The data set is described as follows: PAMPA effective permeability – biophysical, pH 7.4, 6.2, 5.0, ADME assay, late-stage follow-up (AID 1557). Particulars: at 50 µM, stronger effect = higher value. (PAMPA measures passive passage across an artificial lipid membrane.)

The structures appear in SMILES notation. The source made the active and inactive calls. The rule behind the calls is not given here.

Take `C=CCn1c(SCC(=O)c2ccc(O)c(O)c2)nnc1-c1ccccc1OC`: the effective permeability pH 7.4 is 58 10-6 cm/s (inactive). For the setting “measured here: permeability at pH 5.0”, the effective permeability pH 5.0 is 90 10-6 cm/s. Also, the effective permeability pH 6.2 (measured here: permeability at pH 6.2) is 98 10-6 cm/s.
